Test results published in ChEMBL document CHEMBL1201862, “PubChem BioAssay data set” (2004).
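96-well plates; 48 h exposure; 5 concentrations. Endpoints by linear interpolation between flanking doses. Not reached: highest tested concentration assigned. Here, GI50 denotes the concentration required for 50% inhibition of growth.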 Activity calls are given as the source filed them. Rule as the data show it: active = GI50 up to about 1.1 µM and inactive = higher.

Experiments:
Experiment in all cases: DTP human tumour cell line panel, 48 h
[1] = system: 786-0
[2] = system: A498
[3] = system: A549
[4] = system: ACHN
[5] = system: CAKI-1
[6] = system: CCRF-CEM
[7] = system: DLD-1
[8] = system: DMS-114
[9] = system: DMS-273
[10] = system: EKVX
[11] = system: HCC 2998
[12] = system: HCT-116
[13] = system: HCT-15
[14] = system: HL-60
[15] = system: HOP-62
[16] = system: HT-29
[17] = system: IGROV-1
[18] = system: K562
[19] = system: KM-20L2
[20] = system: KM12
[21] = system: LXFL 529
[22] = system: M14
[23] = system: MOLT-4
[24] = system: Malme-3M
[25] = system: NCI-H226
[26] = system: NCI-H23
[27] = system: NCI-H460
[28] = system: OVCAR-3
[29] = system: OVCAR-4
[30] = system: OVCAR-5
[31] = system: OVCAR-8
[32] = system: RPMI-8226
[33] = system: RXF 393
[34] = system: RXF 631
[35] = system: SF-295
[36] = system: SF-539
[37] = system: SK-MEL-28
[38] = system: SK-MEL-2
[39] = system: SK-MEL-5
[40] = system: SK-OV-3
[41] = system: SNB-75
[42] = system: SNB-78
[43] = system: SW-620
[44] = system: TK-10
[45] = system: U-251
[46] = system: UACC-257
[47] = system: UACC-62
[48] = system: UO-31
[49] = system: XF498
[50] = system: HOP-18
[51] = system: M19-MEL
[52] = system: NCI-H522
[53] = system: SF-268
[54] = system: SR

## CCCCCCCCCC1C(C)c2c([nH]c3ccccc23)C2C(=O)N(c3ccccc3)C(=O)C21 (centres undefined)
[1]
  GI50: 12.4 µM (inactive)
[2]
  GI50: 19.2 µM (inactive)
[3]
  GI50: 17.7 µM (inactive)
[4]
  GI50: 10.8 µM (inactive)
[5]
  GI50: 14 µM (inactive)
[6]
  GI50: 3.1 µM (inactive)
[7]
  GI50: 14.9 µM (inactive)
[8]
  GI50: 14.7 µM (inactive)
[9]
  GI50: 12.5 µM (inactive)
[10]
  GI50: 54 µM (inactive)
[11]
  GI50: 12.9 µM (inactive)
[12]
  GI50: 2.94 µM (inactive)
[13]
  GI50: 11 µM
[14]
  GI50: 3.71 µM (inactive)
[15]
  GI50: 17.2 µM (inactive)
[16]
  GI50: 10.8 µM (inactive)
[17]
  GI50: 18.8 µM (inactive)
[18]
  GI50: 3.67 µM (inactive)
[19]
  GI50: 12.1 µM (inactive)
[20]
  GI50: 4.79 µM (inactive)
[21]
  GI50: 35.6 µM (inactive)
[22]
  GI50: 13.1 µM (inactive)
[23]
  GI50: 2.54 µM (inactive)
[24]
  GI50: 41.9 µM (inactive)
[25]
  GI50: 12.2 µM (inactive)
[26]
  GI50: 3.72 µM (inactive)
[27]
  GI50: 4.18 µM (inactive)
[28]
  GI50: 3.43 µM (inactive)
[29]
  GI50: 5.9 µM (inactive)
[30]
  GI50: 17.4 µM (inactive)
[31]
  GI50: 7.78 µM (inactive)
[32]
  GI50: 3.83 µM (inactive)
[33]
  GI50: 1.85 µM (inactive)
[34]
  GI50: 3.05 µM (inactive)
[35]
  GI50: 15.4 µM (inactive)
[36]
  GI50: 19.7 µM (inactive)
[37]
  GI50: 2.29 µM (inactive)
[38]
  GI50: 16.8 µM (inactive)
[39]
  GI50: 17 µM (inactive)
[40]
  GI50: 18.2 µM (inactive)
[41]
  GI50: 13.5 µM (inactive)
[42]
  GI50: 21.4 µM (inactive)
[43]
  GI50: 35.7 µM (inactive)
[44]
  GI50: 28 µM (inactive)
[45]
  GI50: 13.8 µM (inactive)
[46]
  GI50: 15.8 µM (inactive)
[47]
  GI50: 18.3 µM (inactive)
[48]
  GI50: 13 µM (inactive)
[49]
  GI50: 11.2 µM (inactive)

## O=C(Nc1ccc(Cl)cc1Cl)C(=O)Nn1c(S)nc2ccccc2c1=O
[1]
  GI50: > 100 µM (inactive)
[3]
  GI50: > 100 µM (inactive)
[6]
  GI50: > 100 µM (inactive)
[8]
  GI50: > 100 µM (inactive)
[9]
  GI50: > 100 µM (inactive)
[11]
  GI50: > 100 µM (inactive)
[12]
  GI50: > 100 µM (inactive)
[13]
  GI50: > 100 µM
[14]
  GI50: > 100 µM (inactive)
[50]
  GI50: > 100 µM (inactive)
[18]
  GI50: > 100 µM (inactive)
[21]
  GI50: > 100 µM (inactive)
[22]
  GI50: > 100 µM (inactive)
[51]
  GI50: > 100 µM (inactive)
[23]
  GI50: > 100 µM (inactive)
[24]
  GI50: > 100 µM (inactive)
[27]
  GI50: > 100 µM (inactive)
[52]
  GI50: > 100 µM (inactive)
[28]
  GI50: > 100 µM (inactive)
[32]
  GI50: > 100 µM (inactive)
[33]
  GI50: > 100 µM (inactive)
[34]
  GI50: > 100 µM (inactive)
[53]
  GI50: > 100 µM (inactive)
[37]
  GI50: > 100 µM (inactive)
[38]
  GI50: > 100 µM (inactive)
[40]
  GI50: > 100 µM (inactive)
[42]
  GI50: > 100 µM (inactive)
[54]
  GI50: > 100 µM (inactive)
[45]
  GI50: > 100 µM (inactive)
[48]
  GI50: > 100 µM (inactive)
